According to patent US4073888A, “Chlorine dioxide and quaternary ammonium salts as sterilizing agents” (priority 1975, dated 1978):
Entries after “also recorded” stand apart in the source; their conditions may differ.

Columns and labels:
spores [1] = assay: effectiveness of quaternary salts with chlorine dioxide; type: cell-based; details: for results with chlorine dioxide in the testing embodiments: employed with chlorine dioxide; for effectiveness with chlorine dioxide: used with chlorine dioxide for the purposes of the invention
Bacillus subtilis [2] = assay: Comparative Sporicidal Test, didecyl dimethyl ammonium chloride alone; type: cell-based, Bacillus subtilis 19659; details: ten minutes contact; for Number Positive, Tube 1 (original culture) / Number Positive, Tube 2 (subculture): of 10
Procedure: For further comparative purposes it was also decided to test the sporicidal activity of didecyl dimethyl ammonium chloride used alone and employing the bacteria and method described below.
Porcelain penicylinders (Fisher Scientific #7-907)
Incubation Time and Temperature
In the above Table 4, Tube 1 is the original culture and Tube 2 is the subculture of Tube 1.
The active ingredient in these tests was didecyl dimethyl ammonium chloride.
In the above Table 4, the identification of the 1% solution and 0.4% solution refers to the level of total quaternary compound being tested.

[3] = solutions; cited from earlier work
Bacillus subtilis [4] = assay: Comparative Sporicidal Test, chlorine dioxide alone; details: dilutions 1:10 and 1:25
spores [5] = details: cited from earlier work
[6] = cited from earlier work

Compound: CCCCCCCCCC[N+](C)(C)CCCCCCCCCC.[Cl-] [Didecyl Dimethyl Ammonium Chloride, didecyl dimethyl ammonium chloride]
- results with chlorine dioxide in the testing embodiments (spores [1]): outstanding results
- effectiveness with chlorine dioxide (spores [1]): highly effective
- Number Positive, Tube 1 (original culture) (Bacillus subtilis [2]; 0.4% solution): 0
- Number Positive, Tube 2 (subculture) (Bacillus subtilis [2]; 0.4% solution): 10
- Number Positive, Tube 1 (original culture) (Bacillus subtilis [2]; 1% solution): 0
- Number Positive, Tube 2 (subculture) (Bacillus subtilis [2]; 1% solution): 9
- sporicidal activity (conclusion) (Bacillus subtilis [2]; used alone, 1% and 0.4%): poor sporicidal activity; also recorded: only a static effect and not a cidal effect; also recorded: not sporicidal

Compound: CCCCCCCCCCCC[N+](C)(C)CCCCCCCCCCCC.[Cl-] [Didodecyl dimethyl ammonium chloride]
- results with chlorine dioxide in the testing embodiments (spores [1]): outstanding results
- effectiveness with chlorine dioxide (spores [1]): highly effective

Compound: CCCCCCCCCC[N+](C)(C)CCCCCCCC.[Cl-] [Octyl-decyl dimethyl ammonium chloride]
- results with chlorine dioxide in the testing embodiments (spores [1]): outstanding results

Compound: CCCCCCCCCCCC[N+](C)(C)CCCCCCCC.[Cl-] [Octyl-dodecyl dimethyl ammonium chloride]
- results with chlorine dioxide in the testing embodiments (spores [1]): outstanding results
- effectiveness with chlorine dioxide (spores [1]): highly effective

Compound: CCCCCCCCCCCCCCCC[N+](C)(C)C.[Br-] [cetyl trimethyl ammonium bromide, reference compound]
- effectiveness with chlorine dioxide (spores [1]): ineffective

Compound: [O][Cl+][O-] [chlorine dioxide]
- bactericidal, fungicidal, taste and odor control properties [3]: excellent bactericidal, fungicidal, and taste and odor control properties
- outcome before 21 day observation period (Bacillus subtilis [4]): failed completely
- sporicidal activity (conclusion) (Bacillus subtilis [4]; 2-12 hours contact): does not show satisfactory sporicidal activity; also recorded: failure as a sporicide
- sporicidal test outcome (Bacillus subtilis [4]; twelve hours contact): not passed
- sporicidal activity (spores [5]; alone in aqueous solutions): not sporicidal

Compound: O=CCCCC=O [glutaraldehyde]
- shelf-life after activation [6]: 14 days
- time required to kill spores (spores [5]; commercial sporicidal composition): 10 h

Compound: CCCCCCCCCCCCCCCC[N+](C)(C)Cc1ccccc1.[Cl-] [hexadecyldimethyl benzyl ammonium chloride, reference compound]
- effectiveness with chlorine dioxide (spores [1]): ineffective

Compound: CCCCCCCCCCCC(=O)OCCNC(=O)C[n+]1ccccc1 [lauric acid ester of colaminoformylmethyl pyridinium chloride, reference compound]
- effectiveness with chlorine dioxide (spores [1]): ineffective
